Laboratory results taken from patent US20110172147A1, “NEUROPEPTIDE-2 RECEPTOR (Y-2R) AGONISTS” (priority 2009, published 2011).
Like-named read-outs stand apart in the source and are kept apart here.

Legend:
Type in all cases: cell-based
Y5R = biological target: T1, Y5R (Homo sapiens, UniProt Q15761); test: CaFlux Assay (FLIPR), Y5R
T1 sequence (Q15761 1-445): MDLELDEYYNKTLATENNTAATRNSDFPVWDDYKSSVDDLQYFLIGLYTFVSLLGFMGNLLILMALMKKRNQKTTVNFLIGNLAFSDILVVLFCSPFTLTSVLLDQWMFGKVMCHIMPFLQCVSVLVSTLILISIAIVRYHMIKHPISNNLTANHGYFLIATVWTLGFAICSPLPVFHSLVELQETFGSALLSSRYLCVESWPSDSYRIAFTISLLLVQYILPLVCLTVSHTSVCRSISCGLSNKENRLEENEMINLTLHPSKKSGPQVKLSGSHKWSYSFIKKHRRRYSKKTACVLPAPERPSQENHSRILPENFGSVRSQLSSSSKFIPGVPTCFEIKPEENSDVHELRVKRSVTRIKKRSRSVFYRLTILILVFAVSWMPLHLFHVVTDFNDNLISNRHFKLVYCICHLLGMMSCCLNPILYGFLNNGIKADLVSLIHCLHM

Y1R = biological target: T2, Y1R (Homo sapiens, UniProt P25929); test: CaFlux Assay (FLIPR), Y1R
T2 sequence (P25929 1-384): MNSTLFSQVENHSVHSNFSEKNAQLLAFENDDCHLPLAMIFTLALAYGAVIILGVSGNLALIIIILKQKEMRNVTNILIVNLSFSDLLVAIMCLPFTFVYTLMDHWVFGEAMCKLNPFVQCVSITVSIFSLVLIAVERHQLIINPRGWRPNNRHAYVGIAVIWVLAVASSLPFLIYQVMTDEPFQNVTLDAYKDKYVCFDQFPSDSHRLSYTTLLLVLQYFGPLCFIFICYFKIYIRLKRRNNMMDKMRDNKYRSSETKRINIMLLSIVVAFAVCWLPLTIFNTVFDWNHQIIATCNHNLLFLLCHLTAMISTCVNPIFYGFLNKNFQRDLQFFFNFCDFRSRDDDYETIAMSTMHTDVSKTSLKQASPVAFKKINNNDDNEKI

hNPY2R = biological target: T3, hNPY2R (Homo sapiens, UniProt P49146); test: CaFlux Assay (FLIPR), Y2R; set-up: expressed in transfected cells; host or cells: HEK-293 stably transfected with G protein chimera Gαqi9
T3 sequence (P49146 1-381): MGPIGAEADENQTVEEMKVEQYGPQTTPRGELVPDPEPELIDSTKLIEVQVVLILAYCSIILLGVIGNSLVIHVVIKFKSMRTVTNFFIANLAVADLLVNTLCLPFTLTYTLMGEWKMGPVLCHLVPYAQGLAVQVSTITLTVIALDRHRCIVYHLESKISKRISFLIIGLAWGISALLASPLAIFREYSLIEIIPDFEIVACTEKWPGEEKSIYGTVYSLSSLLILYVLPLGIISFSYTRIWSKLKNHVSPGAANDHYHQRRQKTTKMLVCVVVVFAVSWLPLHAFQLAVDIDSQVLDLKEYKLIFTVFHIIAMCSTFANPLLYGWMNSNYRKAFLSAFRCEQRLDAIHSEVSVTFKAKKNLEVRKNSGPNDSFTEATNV
Procedure, shortened: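 Calcium flux read by FLIPR in HEK-293 clones co-expressing chimeric Gαqi9 and receptor; compounds in HBSS/20 mM HEPES/0.05% BSA. Baseline-subtracted peak fluorescence, monitored 100 s after addition, is reported relative to the positive control's maximal response.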

Y4R = Y4R (Homo sapiens, UniProt P50391); test: CaFlux Assay (FLIPR), Y4R
Y4R, sequence (P50391 whole entry): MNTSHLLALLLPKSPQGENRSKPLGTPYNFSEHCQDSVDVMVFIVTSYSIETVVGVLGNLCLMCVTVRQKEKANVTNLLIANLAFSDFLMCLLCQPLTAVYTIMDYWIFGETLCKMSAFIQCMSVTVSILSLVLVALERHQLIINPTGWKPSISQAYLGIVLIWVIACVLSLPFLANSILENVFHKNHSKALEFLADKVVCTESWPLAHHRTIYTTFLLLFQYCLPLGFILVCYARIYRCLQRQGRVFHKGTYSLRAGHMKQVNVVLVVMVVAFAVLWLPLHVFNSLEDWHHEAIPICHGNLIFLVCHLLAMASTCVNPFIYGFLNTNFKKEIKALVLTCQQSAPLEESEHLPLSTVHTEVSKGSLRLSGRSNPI

[1] = FLIPR; read-out: Y5R EC50 (nM) FLIPR
[2] = FLIPR; read-out: Y1R EC50 (nM) FLIPR
[3] = CaFlux (FLIPR), HEK-293 cells with Gαqi9 and human NPY2 receptor; read-out: Y2R EC50 (nM) FLIPR
[4] = FLIPR; read-out: Y4R EC50 (nM) FLIPR

SMILES | EC50 (Y5R; [1]) [nM] | EC50 (Y1R; [2]) [nM] | EC50 (hNPY2R; [3]) [nM] | EC50 (Y4R; [4]) [nM] | EC50 (Y5R; read-out: Y5R EC50 (nM) FLIPR; FLIPR) [nM] | EC50 (Y1R; read-out: Y1R EC50 (nM) FLIPR; FLIPR) [nM] | EC50 (hNPY2R; read-out: Y2R EC50 (nM) FLIPR; CaFlux (FLIPR), HEK-293 cells with Gαqi9 and human NPY2 receptor) [nM] | EC50 (Y4R; read-out: Y4R EC50 (nM) FLIPR; FLIPR) [nM]
CC[C@H](C)[C@H](NC(C)=O)C(=O)N[C@@H](CCCCNC(=O)CCOCCOCCOCCOCCOCCOCCOCCOCCOCCOCCOCCOCCOCCOCCOCCOCCOCCOCCOCCOCCOCCOCCOCCOC)C(=O)N1CCN(c2ccc3ncn(CC(=O)N[C@@H](CCCNC(=N)N)C(=O)N[C@@H](Cc4c[nH]cn4)C(=O)N[C@@H](Cc4ccc(O)cc4)C(=O)N[C@@H](CC(C)C)C(=O)N[C@@H](CC(N)=O)C(=O)N[C@@H](Cc4c[nH]c5ccccc45)C(=O)N[C@H](C(=O)N[C@H](C(=O)N[C@@H](CCCNC(=N)N)C(=O)N[C@@H](CCC(N)=O)C(=O)N(C)[C@@H](CCCNC(=N)N)C(=O)N[C@@H](Cc4ccc(O)cc4)C(N)=O)[C@@H](C)O)C(C)C)c(=O)c3c2)CC1 [Example 21] | > 6000 | > 6000 | 0.139 | > 6000 |  |  |  | 
CCCCCCCCCCCCCCCCCCCC(=O)N[C@@H](CCS(=O)(=O)O)C(=O)N[C@@H](CCS(=O)(=O)O)C(=O)NCCCC[C@H](NC(=O)[C@@H](NC(=O)CCOCCOCCOCCOCCOCCOCCOCCOCCOCCOCCOCCOCCOCCOCCOCCOCCOCCOCCOCCOCCOCCOCCOCCOC)[C@@H](C)CC)C(=O)N1CCN(c2ccc3ncn(CC(=O)N[C@@H](CCCNC(=N)N)C(=O)NC(Cc4c[nH]cn4)C(=O)N[C@@H](Cc4ccc(O)cc4)C(=O)NC(CC(C)C)C(=O)N[C@@H](CC(N)=O)C(=O)NC(Cc4c[nH]c5ccccc45)C(=O)N[C@H](C(=O)N[C@H](C(=O)N[C@@H](CCCNC(=N)N)C(=O)NC(CCC(N)=O)C(=O)N(C)[C@@H](CCCNC(=N)N)C(=O)NC(Cc4ccc(O)cc4)C(N)=O)[C@@H](C)O)C(C)C)c(=O)c3c2)CC1 (stereo partly drawn) [Example 27] | > 6000 | > 6000 | 9.6 | > 6000 |  |  |  | 
CC[C@H](C)[C@H](NC(=O)[C@H](CCC(=O)O)NC(=O)[C@H](CCC(=O)O)NC(=O)CCCCCCCCCCCCCCC(=O)O)C(=O)N[C@@H](CCCCNC(=O)CCOCCOCCOCCOCCOCCOCCOCCOCCOCCOCCOCCOCCOCCOCCOCCOC)C(=O)N1CCN(c2ccc3ncn(CC(=O)N[C@@H](CCCNC(=N)N)C(=O)N[C@@H](Cc4c[nH]cn4)C(=O)N[C@@H](Cc4ccc(O)cc4)C(=O)N[C@@H](CC(C)C)C(=O)N[C@@H](CC(N)=O)C(=O)N[C@@H](Cc4c[nH]c5ccccc45)C(=O)N[C@H](C(=O)N[C@H](C(=O)N[C@@H](CCCNC(=N)N)C(=O)N[C@@H](CCC(N)=O)C(=O)N(C)[C@@H](CCCNC(=N)N)C(=O)N[C@@H](Cc4ccc(O)cc4)C(N)=O)[C@@H](C)O)C(C)C)c(=O)c3c2)CC1 [Example 54] |  |  |  |  | > 6000 | > 6000 | 292 | > 6000

The next lines start with results.

EC50 (Y5R; [1]) [nM] | EC50 (Y1R; [2]) [nM] | EC50 (hNPY2R; [3]) [nM] | EC50 (Y4R; [4]) [nM] | SMILES | EC50 (Y5R; read-out: Y5R EC50 (nM) FLIPR; FLIPR) [nM] | EC50 (Y1R; read-out: Y1R EC50 (nM) FLIPR; FLIPR) [nM] | EC50 (hNPY2R; read-out: Y2R EC50 (nM) FLIPR; CaFlux (FLIPR), HEK-293 cells with Gαqi9 and human NPY2 receptor) [nM] | EC50 (Y4R; read-out: Y4R EC50 (nM) FLIPR; FLIPR) [nM]
1320 | > 6000 | 11.1 | > 6000 | CCCCCCCCCCCCCCCCCCCC(=O)N[C@@H](CCS(=O)(=O)O)C(=O)N[C@@H](CCS(=O)(=O)O)C(=O)NCCCC[C@H](NC(=O)[C@@H](NC(=O)CCOCCOCCOCCOCCOCCOCCOCCOCCOCCOCCOCCOCCOCCOCCOCCOCCOCCOCCOCCOCCOCCOCCOCCOC)[C@@H](C)CC)C(=O)N1CCN(c2ccc3ncn(CC(=O)N[C@@H](CCCNC(N)=O)C(=O)NC(Cc4c[nH]cn4)C(=O)N[C@@H](Cc4ccc(O)cc4)C(=O)NC(CC(C)C)C(=O)N[C@@H](CC(N)=O)C(=O)NC(Cc4c[nH]c5ccccc45)C(=O)N[C@H](C(=O)N[C@H](C(=O)N[C@@H](CCCNC(=N)N)C(=O)NC(CCC(N)=O)C(=O)N(C)[C@@H](CCCNC(=N)N)C(=O)NC(Cc4ccc(O)cc4)C(N)=O)[C@@H](C)O)C(C)C)c(=O)c3c2)CC1 (stereo partly drawn) [Example 28] |  |  |  | 
> 6000 | > 6000 | 0.156 | > 6000 | CCCCCCCCCCCCCCCC(=O)N[C@@H](CCS(=O)(=O)O)C(=O)N[C@@H](CCS(=O)(=O)O)C(=O)NCCCC[C@H](NC(=O)[C@@H](NC(=O)CCOCCOCCOCCOCCOCCOCCOCCOCCOCCOCCOCCOCCOCCOCCOCCOCCOCCOCCOCCOCCOCCOCCOCCOC)[C@@H](C)CC)C(=O)N1CCN(c2ccc3ncn(CC(=O)N[C@@H](CCCNC(=N)N)C(=O)NC(Cc4c[nH]cn4)C(=O)N[C@@H](Cc4ccc(O)cc4)C(=O)NC(CC(C)C)C(=O)N[C@@H](CC(N)=O)C(=O)NC(Cc4c[nH]c5ccccc45)C(=O)N[C@H](C(=O)N[C@H](C(=O)N[C@@H](CCCNC(=N)N)C(=O)NC(CCC(N)=O)C(=O)N(C)[C@@H](CCCNC(=N)N)C(=O)NC(Cc4ccc(O)cc4)C(N)=O)[C@@H](C)O)C(C)C)c(=O)c3c2)CC1 (stereo partly drawn) [Example 29] |  |  |  | 
1010 | > 6000 | 0.097 | > 6000 | CCCCCCCCCCCCCCCCCCCC(=O)NCCCCCC(=O)N[C@H](C(=O)N[C@@H](CCCCNC(=O)CCOCCOCCOCCOCCOCCOCCOCCOCCOCCOCCOCCOCCOCCOCCOCCOCCOCCOCCOCCOCCOCCOCCOCCOC)C(=O)N1CCN(c2ccc3ncn(CC(=O)N[C@@H](CCCNC(=N)N)C(=O)N[C@@H](Cc4c[nH]cn4)C(=O)N[C@@H](Cc4ccc(O)cc4)C(=O)N[C@@H](CC(C)C)C(=O)N[C@@H](CC(N)=O)C(=O)N[C@@H](Cc4c[nH]c5ccccc45)C(=O)N[C@H](C(=O)N[C@H](C(=O)N[C@@H](CCCNC(=N)N)C(=O)N[C@@H](CCC(N)=O)C(=O)N(C)[C@@H](CCCNC(=N)N)C(=O)N[C@@H](Cc4ccc(O)cc4)C(N)=O)[C@@H](C)O)C(C)C)c(=O)c3c2)CC1)[C@@H](C)CC [Example 35] |  |  |  | 
